Article PMC10287695, “Non-covalent inhibitors of thioredoxin glutathione reductase with schistosomicidal activity in vivo” (Nature Communications, 2023)
Where “and” joins values, the source holds several entries; their conditions need not be identical. Identical values can stand only once. Like-named read-outs stand apart in the source and are kept apart here. Marks after values point to notes of the source that are not given here.

Key:
S. mansoni TGR = target: T1, S. mansoni TGR (Schistosoma mansoni, UniProt Q962Y6); experiment: S. mansoni TGR enzyme inhibition (DTNB reduction); format: biochemical; settings: for S. mansoni TGR inhibition (%) at 66.7 µM: 6 h preincubation (enzyme + 100 µM NADPH + compound)
T1 construct: made in house
T1 sequence (Q962Y6 1-598): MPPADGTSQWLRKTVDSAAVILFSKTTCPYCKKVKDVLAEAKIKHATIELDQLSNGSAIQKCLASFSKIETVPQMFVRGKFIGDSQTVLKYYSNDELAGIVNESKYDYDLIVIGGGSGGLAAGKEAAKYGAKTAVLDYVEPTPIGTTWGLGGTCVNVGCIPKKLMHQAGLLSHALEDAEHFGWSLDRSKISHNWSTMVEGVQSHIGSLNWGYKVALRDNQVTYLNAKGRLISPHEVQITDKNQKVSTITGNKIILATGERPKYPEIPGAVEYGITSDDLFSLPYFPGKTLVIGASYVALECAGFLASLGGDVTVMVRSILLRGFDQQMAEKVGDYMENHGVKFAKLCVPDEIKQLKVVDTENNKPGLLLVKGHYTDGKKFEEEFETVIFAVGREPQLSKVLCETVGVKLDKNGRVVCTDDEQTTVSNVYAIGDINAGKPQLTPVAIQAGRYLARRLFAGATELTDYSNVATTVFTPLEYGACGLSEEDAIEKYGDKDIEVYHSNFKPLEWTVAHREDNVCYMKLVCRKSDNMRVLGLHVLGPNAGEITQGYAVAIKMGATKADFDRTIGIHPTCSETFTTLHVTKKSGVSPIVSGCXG

S. mansoni adult worms [1] = experiment: GSH/GSSG ratio in ex vivo adult worms; format: cell-based; settings: for Reduction (%) in GSH/GSSG ratio: third data set
S. mansoni adult worms [2] = experiment: Schistosomicidal activity ex vivo, adult worms (Cell Titer Glo), alone or with channel blockers; format: cell-based; settings: for LD50 ex vivo S. mansoni adult: 24 h exposure, compound alone
Experimental: Three-week old, female Swiss-Webster mice obtained from the Charles River were housed in the Comparative Research Center of Rush University Medical Center. Mice were infected by percutaneous tail exposure to about 200 S. mansoni or 50 S. japonicum cercaria for adult worms and about 1000 cercaria for juvenile S. mansoni worms through natural transdermal penetration of the cercariae for 1 h[81].
DMSO formulated compounds were diluted with phenol red free M199 medium or RPMI medium for NTS or juvenile and adult worms, respectively, at <1% DMSO final concentrations. NTS, juvenile and adult worms from overnight cultures were tested against compounds in triplicate. Controls were treated with DMSO alone or 5 µM AF as a positive control in appropriate medium. […] Schistosome viabilities in the presence of the compounds were assessed using this formula: % Viability = Averages of Test / Averages of DMSO Control x 100.

Vero cells = experiment: Cytotoxicity in mammalian cells (Cell Titer Glo); format: cell-based
Experimental: Following overnight incubation, formulated DMSO-compound stock solutions were diluted with DMEM at <1% DMSO final concentrations. […] Vero cells treated similarly with different concentrations of PZQ, MZM and AF (Cayman Chemicals) were used as positive controls.

[3] = 1 hr, first data set (r117-133), baseline 55.82
[4] = 1 hr, first data set (r117-133), baseline = 100
[5] = 3 hr, first data set (r117-133), baseline 55.82
[6] = 3 hr, first data set (r117-133), baseline = 100

## CC1C(NCc2cn(C3OCC(O)C(O)C3O)c3ccccc23)CC2CC1C2(C)C (centres unmarked) [Compound 9]
S. mansoni TGR; 15 min preincubation (enzyme + 100 µM NADPH + compound)
  IC50: 57.5 ± 2.46 µM
S. mansoni TGR; TGR, 15 minutes pre-incubation, compound 1 µM
  inhibition at 1 µM: 3.4%
S. mansoni TGR; TGR, 15 minutes pre-incubation, compound 5 µM
  inhibition at 5 µM: 11.8%
S. mansoni TGR; TGR, 15 minutes pre-incubation, compound 15 µM, read-out: % inhibition
  inhibition at 15 µM: 32.6%
S. mansoni TGR; TGR, 15 minutes pre-incubation, compound 30 µM, read-out: % inhibition
  inhibition at 30 µM: 49.3%
S. mansoni TGR; TGR, 15 minutes pre-incubation, compound 66.7 µM, read-out: % inhibition
  inhibition at 66.7 µM: 68.2%
S. mansoni adult worms [1]; 1 hr, second data set (r136-144), baseline 63.5617, DMSO 63.4928
  Ratio GSH/GSSG: 62.1962
S. mansoni adult worms [1]; 1 hr
  Reduction (%) in GSH/GSSG ratio: 1.8641%
S. mansoni adult worms [1]; 1 hr, third data set (r147-159), 0hr 72.45
  Ratio GSH/GSSG: 71.10
S. mansoni adult worms [1]; 1 hr, third data set (r147-159), 0hr = 100
  % Ratio GSH/GSSG: 98.1359%
S. mansoni adult worms [1]; 1 hr, (values given as fraction)
  Reduction (%) in GSH/GSSG ratio: 0.0186%
S. mansoni adult worms [1]; 3 hr, second data set (r136-144), baseline 63.5617, DMSO 203.124
  Ratio GSH/GSSG: 55.0997
S. mansoni adult worms [1]; 3 hr
  Reduction (%) in GSH/GSSG ratio: 10.4658%
S. mansoni adult worms [1]; 3 hr, third data set (r147-159), 0hr 72.45
  Ratio GSH/GSSG: 64.87
S. mansoni adult worms [1]; 3 hr, third data set (r147-159), 0hr = 100
  % Ratio GSH/GSSG: 89.5342%
S. mansoni adult worms [1]; 3 hr, (values given as fraction)
  Reduction (%) in GSH/GSSG ratio: 0.10%
S. mansoni adult worms [1]; adult worms, 3 h exposure to compounds at 50 μM
  Decrease (%) in GSH/GSSG ratio: 9%
S. mansoni adult worms [2]
  LD50 ex vivo S. mansoni adult: >100^a µM and >100 µM
S. mansoni adult worms [2]; Schistosoma mansoni, S. mansoni adult worms, 5 µM, relative to Worm + RPMI control, read-out: % viability
  viability at 5 µM: 99.2%
S. mansoni adult worms [2]; Schistosoma mansoni, S. mansoni adult worms, 15 µM, relative to Worm + RPMI control, read-out: % viability
  viability at 15 µM: 91.1%
S. mansoni adult worms [2]; Schistosoma mansoni, S. mansoni adult worms, 30 µM, relative to Worm + RPMI control, read-out: % viability
  viability at 30 µM: 88.8%
S. mansoni adult worms [2]; Schistosoma mansoni, S. mansoni adult worms, 50 µM, relative to Worm + RPMI control, read-out: % viability
  viability at 50 µM: 83.3%
S. mansoni adult worms [2]; Schistosoma mansoni, S. mansoni adult worms, 100 µM, relative to Worm + RPMI control, read-out: % viability
  viability at 100 µM: 78.4%
Vero cells; African green monkey, 24 h
  LD50 ex vivo VERO: >50^a µM
Vero cells; Chlorocebus sabaeus, Vero, estimate from raw data, read-out: EC50 viability of Vero cells
  EC50: > 200 µM

## C[C@@H]1N=C(c2ccccc2Cl)c2cc([N+](=O)[O-])ccc2NC1=O [MZM, meclonazepam, reference compound]
S. mansoni TGR
  S. mansoni TGR inhibition (%) at 66.7 µM: n.i.^e
S. mansoni adult worms [1]; [3]
  Ratio GSH/GSSG: 55.11
S. mansoni adult worms [1]; [4]
  % Ratio GSH/GSSG: 98.7253%
S. mansoni adult worms [1]; [5]
  Ratio GSH/GSSG: 55.10
S. mansoni adult worms [1]; [6]
  % Ratio GSH/GSSG: 98.7201%
S. mansoni adult worms [2]
  LD50 ex vivo S. mansoni adult: 26.9 ± 0.97 µM
S. mansoni adult worms [2]; Schistosoma mansoni
  viability at 5 µM: 91.9%
  viability at 15 µM: 69.8%
  viability at 30 µM: 48.7%
  viability at 50 µM: 31.3%
Vero cells; 24-hour exposure
  LD50 ex vivo VERO: >50^a µM

## O=C(C1CCCCC1)N1CC(=O)N2CCc3ccccc3C2C1 (centres unmarked) [PZQ, praziquantel]
S. mansoni TGR
  S. mansoni TGR inhibition (%) at 66.7 µM: n.i.^e
S. mansoni adult worms [1]; [3]
  Ratio GSH/GSSG: 55.34
S. mansoni adult worms [1]; [4]
  % Ratio GSH/GSSG: 99.1418%
S. mansoni adult worms [1]; [5]
  Ratio GSH/GSSG: 55.09
S. mansoni adult worms [1]; [6]
  % Ratio GSH/GSSG: 98.6979%
S. mansoni adult worms [2]
  LD50 ex vivo S. mansoni adult: 32.8 ± 4.07 µM
S. mansoni adult worms [2]; Schistosoma mansoni
  viability at 5 µM: 95.6%
  viability at 15 µM: 75.1%
  viability at 30 µM: 54.8%
  viability at 50 µM: 35.2%
Vero cells; 24-hour exposure
  LD50 ex vivo VERO: >50^a µM
